In patent publication US20250179126A1, “A NOVEL PEPTIDE FROM A PHOTOSYNTHETIC BACERIUM DIRECTLY TARGETS MITOCHONDRIA TO TRIGGER APOPTOSIS IN ADVANCED PROSTATE CANCER CELLS” (priority 2022, published 2025):
Entries after “also recorded” stand apart in the source; their conditions may differ.

Assays:
Assay type in all cases: cell-based, human
[1] = test system: Mel-2 cells; assay: Aldolase A secretion and expression in Mel-2 cells treated with purified azurin; conditions: Mel-2, purified azurin 100 nM, 10 μM, 1 mM, 30 min
Description: FIG. 18A-18G: Induction of aldolase A secretion by host cells in the presence of P. aeruginosa. 18A. Human host cells (cancer and normal) and P. aeruginosa were co-incubated for 30 min at a concentration of 500,000 human cells/ml with P. aeruginosa at OD=0.3. Aldolase secretion varied between the co-cultures with cancer and normal cells. […] 18B Correlation between the aldolase A and azurin levels in co-cultures of P. aeruginosa with cancer or normal cells. 18C Cancer cells (Mel-2 and MDA-MB-231) and P. aeruginosa (WT and azunull mutant) were co-incubated for 30 min at a concentration of 500,000 human cells/ml with P. aeruginosa at OD=0.3. Secretion of aldolase into the culture supernatant was assessed by western blot analysis. […]
Aldolase A gene expression in MDA-MB-231 (black bars) and Mel-2 (white bars) cells was determined by RT-PCR (22A). […] 22B: Intracellular levels of aldolase A were assessed by western blot analysis with an anti-aldolase A antibody. […]
Western blotting: After running the NuPAGE, proteins were transferred to PVDF membranes (BioRad Laboratories Inc, Hercules, CA) which were blocked in SuperBlock (T20 TBS buffer, Thermo Fisher) for one hour. […] The signal was detected using enhanced chemiluminescence (ECL, Thermo Fisher Scientific). Quantitative analysis of the bands was performed with a computer-assisted imaging densitometer (UN-SCAN-IT gel version 5.1). […]

[2] = test system: DU145 cells; assay: Annexin-V apoptosis assay by flow cytometry, DU145; conditions: DU145, 48 hr; Ptxl 1 nM, p28 50 μM, aurA/aurB 0.5-50 μM
Description: (§1) FIG. 7A-7D: Determination of apoptotic cell death. Prostate cancer cell lines (7A: LNCaP, 7B: DU145 and 7C: PC3) and normal prostate CRL11611 cells (7D) were exposed to the indicated agents for 48 hr and stained using apoptosis assay kits according to the manufacturer's instructions. The samples were analyzed by flow cytometry. Mean±SE (N=3).
(§2) After 48 hr, annexin-V apoptosis assays (Thermo Fisher Scientific) were conducted to detect apoptotic cells. At least 10,000 cells in each case were analyzed by FACS (RRC, UIC).

[3] = test system: DU145 prostate cancer cells; assay: MTT cell viability assay, DU145 prostate cancer cells
Description: (§3) Cell viability was detected by MTT assays, and the control (PBS-treated) cells were considered 100% viable. Mean±SE (N=3). *P<0.05, **P<0.01, ***P<0.001.
(§4) Cell lines and culture: Human cancer and noncancer (immortalized and nonimmortalized) cell lines were obtained from the American Type Culture Collection [prostate cancer (PC3, DU145 and LNCaP), normal prostate (CRL11611), breast cancer (MCF-7), ovarian cancer (SK-OV3 adenocarcinoma), lung cancer (A549)]. MDD2 breast cancer cells (p53 dominant-negative) were provided courtesy of Dr Andrei V. Gudkov, Roswell Park Cancer Institute. 20 All cell lines were cultured in MEM-E (Invitrogen) supplemented with 10% heat-inactivated fetal bovine serum (Atlanta Biological, Inc.), 100 units/mL penicillin, and 100 μg/mL streptomycin at 37° C. in 5% CO2.

[4] = test system: MCF-7 breast cancer cells; assay: MTT cell viability assay, MCF-7 breast cancer cells; conditions: MCF-7, 5-100 μM, 24 hr
Description: as §3, §4
(§5) Cytotoxicity assay: The MTT assay was performed as we previously described (Cha et al., Cancer Research 2020, 80: 1615-1623).

[5] = test system: PC3 cells; assay: Annexin-V apoptosis assay by flow cytometry, PC3; conditions: PC3, 48 hr; Ptxl 1 nM, p28 50 μM, aurA/aurB 0.5-50 μM
Description: as §1, §2

[6] = test system: SKOV-3 ovarian cancer cells; assay: MTT cell viability assay, SKOV-3 ovarian cancer cells; conditions: 24 hr
Description: as §3, §4, §5

[7] = test system: PC3 prostate cancer cells; assay: MTT cell viability assay, PC3 prostate cancer cells
Description: as §4

[8] = test system: LNCaP cells; assay: Annexin-V apoptosis assay by flow cytometry, LNCaP; conditions: 48 hr, Ptxl 1 nM, p28 50 μM, aurA/aurB 0.5-50 μM
Description: as §1, §2

Substance	aldolase A gene expression and intracellular levels [1]	aldolase A secretion into culture medium (western blot) [1]	apoptotic cell death [2]	cytotoxic effect (MTT cell viability) ([3]; DU145 (p53-mutant, AR−), 24-72 hr, paclitaxel 1 nM)	inhibition rate ([3]; DU145, 100 μM for 72 hr) [%]	anti-proliferative effect (MTT cell viability) ([3]; DU145, 5-100 μM, 24 hr)	anti-proliferative effect (MTT cell viability) [4]	apoptotic cell death [5]	effect on p53-inactive cancer cells (MTT) ([6]; SKOV3 (p53-null), 0.1-100 μM)	anti-proliferative effect (MTT cell viability) ([6]; SKOV-3, 5-100 μM)	effect on p53-inactive cancer cells (MTT) ([7]; PC3 (p53-null), 0.1-100 μM, 24 hr)	cytotoxic effect (MTT cell viability) ([7]; PC3 (p53-null, AR−), 24-72 hr, paclitaxel 1 nM)	inhibition rate ([7]; PC3, 100 μM for 72 hr) [%]	apoptotic cell death [8]
azurin: 14 kDa periplasmic copper protein of 128 amino acids from P. aeruginosa; purified recombinant	without increasing gene expression or intracellular levels of aldolase A	secreted a considerable amount of human aldolase A												
LVN GGD DVA AAV NTA AQN NAD ALF VPPP (LVNGGDDVAAAVNTAAQNNADALFVPPP) [aurB]			induced significant dose-dependent apoptosis	significantly induced dose-dependent cytotoxic effects; also recorded: more sensitive than the normal prostate cell line	~50	clear dose-dependent effects	clear dose-dependent effects	induced significant dose-dependent apoptosis	dose-dependent	clear dose-dependent effects	dose-dependent	significantly induced dose-dependent cytotoxic effects; also recorded: more sensitive than the normal prostate cell line	~50	induced significant dose-dependent apoptosis
